# Results: patent US12336987B2, “Quinoline amides and methods of using same” (YALE UNIVERSITY, priority 2015, dated 2025)
# Where no end group is shown, it is not given here.
# How the values were obtained:
# IAPP20-29 = target: T1, IAPP20-29 (Homo sapiens, UniProt P10997); assay: Amyloid assembly kinetics of the 10-residue peptide IAPP20-29; type: biochemical; details: 200 μM IAPP20-29
# T1 construct: the 10-residue sub-peptide, IAPP20-29
# Protocol: Amyloid reactions were conducted in buffer containing liposome (630 μM lipid) and 20 μM ThT in a black 96-well plate. This was followed by addition of small molecule dissolved in DMSO (final DMSO concentration=0.5%, v/v). Fibre formation was initiated by addition of IAPP stock solution. The final volume in each well was 200 μL. Kinetics of fibrillation was monitored by ThT fluorescence (Ex 450 nm and Em 485 nm) using a FluoDia T70 fluorescence plate reader (Photon Technology International, Edison, NJ, USA). The data were blank subtracted and renormalized to the maximum intensity of reactions containing only IAPP. Each kinetic trace was fit to a sigmoidal form:
# [formula] where I is the fluorescence intensity, t is time, and b, m, and r are dependent fitting variables. All samples were run at least in triplicate and error bars shown in the text represent ±one standard deviation. Transmission Electron Microscopy
# INS-1 cells = assay: Cell viability (Cell-Titer Blue), IAPP induced toxicity and rescue; type: cell-based, rat; details: 13 μM IAPP; for rescue of IAPP induced toxicity, co-addition: 1:1 IAPP:ligand co-added, 48 h
# Protocol: Rat insulinoma INS-1 cells (832/13, Dr. Gary W. Cline, Department of Internal Medicine, Yale University) were cultured at 37° C. and 5% CO2 in phenol red free RPMI 1640 media supplemented with 10% fetal bovine serum, 1% penicillin/streptomycin (Life Technologies, Carlsbad, CA, USA), and 2% INS-1 stock solution (500 mM HEPES, 100 mM L-glutamine, 100 mM sodium pyruvate, and 2.5 mM β-mercaptoethanol). Cells were passaged upon reaching ˜95% confluence (0.25% Trypsin-EDTA, Life Technologies), propagated, and/or used in experiments. Cells used in experiments were pelleted and resuspended in fresh media with no Trypsin-EDTA.
# Cell viability was measured colourimetrically using the Cell-Titer Blue (CTB, Promega, Madison, WI, USA) fluorescence-based assay. Cells were plated at a density 5000 cells/well in 96-well plates (BD Biosciences, San Diego, CA). Peptide was directly introduced to each well after 48 h of culture and then further incubated for an additional 48 h. For time dependent experiments, cells were incubated with peptide for the specified time points. After the incubation period, 20 μL CTB reagent was added to each well and incubated at 37° C. and 5% CO2 for 2.5-3.5 h. Fluorescence of the resorufin product was measured on a FluoDia T70 fluorescence plate reader (Photon Technology International, Birmingham, NJ, USA). All wells included the same amount of water to account for different concentrations of peptide added to sample wells. Wells that included water vehicle but not peptide served as the negative control (0% toxic), and wells containing 10% DMSO were the positive control (100% toxic). Percent toxicity was calculated using the following equation: […]
# Each independent variable is the average of eight plate replicates from the negative control (<N>), positive control (<P>), and samples (<S>). Results presented for viability experiments are an average of three such experiments conducted independently on different days. Error bars represent the standard error of the mean.
# IAPP = target: T2, IAPP (Homo sapiens, UniProt P10997); assay: Kinetic assay of IAPP fibre formation (ThT fluorescence), in solution or catalysed by LUVs; type: biochemical; details: 10 μM IAPP, 630 μM LUVs, IAPP:small molecule 1:1
# T2 construct: purchased Genscript; Elim Biopharmaceuticals
# T2 sequence (P10997 34-70 limits assumed): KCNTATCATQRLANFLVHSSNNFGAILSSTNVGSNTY
# Protocol: Unless otherwise stated, LUVs used in this work were prepared from a 1:1 mixture of DOPG/DOPC. The lyophilized mixture was hydrated in 100 mM KCl, 50 mM sodium phosphate, and pH 7.4 for 20 minutes. A 20 mg/mL solution of lipid in buffer was passed 21 times through a polycarbonate membrane (pore diameter=100 nm).
# Amyloid reactions were conducted in buffer containing liposome (630 μM lipid) and 20 μM ThT in a black 96-well plate. This was followed by addition of small molecule dissolved in DMSO (final DMSO concentration=0.5%, v/v). […] The final volume in each well was 200 μL. Kinetics of fibrillation was monitored by ThT fluorescence (Ex 450 nm and Em 485 nm) using a FluoDia T70 fluorescence plate reader (Photon Technology International, Edison, NJ, USA). […] Each kinetic trace was fit to a sigmoidal form:
# [1] = system: Src and its homologue, Abl; details: background statement; cited from earlier work
effect on liposome catalysed fibrillation (IAPP),Molecule,"rescue of IAPP induced toxicity, co-addition (INS-1 cells)",other results
no detectable effect,Oc1ccc(C=Cc2cc(O)cc(O)c2)cc1 [resveratrol],ineffective in rescuing toxicity,–
no detectable effect,acid fuchsin,ineffective in rescuing toxicity,–

# The next lines start with the molecule.
Molecule,effect on liposome catalysed fibrillation (IAPP),"rescue of IAPP induced toxicity, co-addition (INS-1 cells)",other results
"IAPP20-29: 10-residue sub-peptide of IAPP, residues 20-29 (SNNFGAILSS; Islet amyloid polypeptide; UniProt P10997 53-62, looked up, fragment)",–,–,t50 of amyloid formation (IAPP20-29): 6.6 ± 0.3 h
O=C(O[C@@H]1Cc2c(O)cc(O)cc2O[C@@H]1c1cc(O)c(O)c(O)c1)c1cc(O)c(O)c(O)c1 [EGCG],no detectable effect,ineffective in rescuing toxicity,–
COC(=O)c1cc(OCC(=O)O)c2cccc(NC(=O)c3cc(OCC(=O)O)c4cccc(NC(=O)c5cc(OCC(=O)O)c6cccc(NC(=O)c7cc(OCC(=O)O)c8cccc(NC(=O)c9cc(OCC(=O)O)c%10cccc([N+](=O)[O-])c%10n9)c8n7)c6n5)c4n3)c2c1 [ADM-118],–,–,"inhibition of liposome catalysed fibrillation, t50 relative to control (IAPP): 3.3±0.1 fold"
"IAPP: 37-residue, C-terminally amidated human islet amyloid polypeptide (SEQ ID NO:1) (KCNTATCATQRLANFLVHSSNNFGAILSSTNVGSNTY-NH2; cysteine pairing not given here)",–,–,decrease of INS-1 viability (INS-1 cells; 48 h incubation): 78±8%
Cc1ccc(NC(=O)c2ccc(CN3CCN(C)CC3)cc2)cc1Nc1nccc(-c2cccnc2)n1 [Gleevec],–,–,"difference in binding affinity between Src and Abl [1]: > 1,000 fold"
